Measurements published in article PMC12339935 (Scientific Reports, 2025).
In brackets after ≈: the same amount, converted by molar mass.

Experiments:
[1] = tested on: Bacillus cereus ATCC 11778; experiment: Antibacterial optical density microplate assay, B. cereus; assay type: cell-based; conditions: for MIC: Bacillus cereus, ATCC11778, read-out: Anti-Bacillus cereus (MIC, µg/ml); for Anti-Bacillus cereus (MIC, µg/ml): B. cereus ATCC 11778, maximum tested concentration 50 µg/ml
[2] = tested on: Staphylococcus aureus ATCC 29213; experiment: Antibacterial optical density microplate assay, S. aureus; assay type: cell-based; conditions: ATCC29213, read-out: Anti-Staphylococcus aureus (MIC, µg/ml)
S. aureus = conditions: literature value; cited from earlier work
Mycobacterium bovis = conditions: cited from earlier work
Escherichia coli = conditions: literature value; cited from earlier work
in vitro [3] = conditions: human (MCF-7, NCI-H187); African green monkey (Vero)
[4] = tested on: MCF-7 (human breast cancer) cells; conditions: maximum tested concentration 50 µg/ml
[5] = tested on: NCI-H187 (human small-cell lung cancer) cells; conditions: maximum tested concentration 50 µg/ml
Vero cells = conditions: non-cancerous, maximum tested concentration 50 µg/ml
in vitro [6] = conditions: human
in vitro [7] = conditions: human; remark: listed apart in the source

Row | SMILES | MIC [1] [µg/mL] | MIC [2] [µg/mL] | Anti-Bacillus cereus (MIC, µg/ml) [1] | Cytotoxicity (IC50, µM) MCF-7 [4] | Cytotoxicity (IC50, µM) Vero (Vero cells) | other results
1 | CC(=O)Nc1c2sscc-2n(C)c1=O [Compound 1, thiolutin] | 1.56 (≈ 6.83 µM) | 3.13 (≈ 13.7 µM) | – | – | – | MIC against S. aureus (S. aureus): 3.125 µg/mL (≈ 13.7 µM); MIC against Mycobacterium bovis (Mycobacterium bovis): 0.313 µg/mL (≈ 1.37 µM); MIC against Escherichia coli (Escherichia coli): 6.25 µg/mL (≈ 27.4 µM); IC50 (in vitro [3]): 0.35 to 5.61 µM
2 | Nc1cccc2c(=O)[nH]c(=O)oc12 [Compound 3, 8-amino-2 H-benz[e][1,3]oxazine-2,4(3 H)-dione] | – | – | Inactive | Inactive | Inactive | Cytotoxicity (IC50, µM) NCI-H187 [5]: Inactive
3 | NC(=O)c1cccc(O)c1O [Compound 5, 2,3-dihydroxybenzamide] | – | – | Inactive | Inactive | Inactive | IC50 (in vitro [6]): 33.8 µM
4 | COc1cccc(C(N)=O)c1O [Compound 6, 2-hydroxy-3-methoxybenzamide] | – | – | Inactive | Inactive | Inactive | Cytotoxicity (IC50, µM) NCI-H187 [5]: Inactive
5 | Cc1c2ccncc2c(C)c2c1[nH]c1ccccc12 [Ellipticine, reference compound] | – | – | – | – | – | IC50 (in vitro [6]): 11.8 µM
6 | CO[C@H]1/C=C/O[C@@]2(C)Oc3c(C)c(O)c4c(O)c(c(/C=N/N5CCN(C)CC5)c(O)c4c3C2=O)NC(=O)/C(C)=C\C=C\[C@H](C)[C@H](O)[C@@H](C)[C@@H](O)[C@@H](C)[C@H](OC(C)=O)[C@@H]1C [Rifampicin, reference compound] | 0.16 to 0.63 (≈ 0.194 to 0.766 µM) | 0.04 to 0.56 (≈ 0.0486 to 0.68 µM) | – | – | – | –
7 | CC/C(=C(\c1ccccc1)c1ccc(OCCN(C)C)cc1)c1ccccc1 [Tamoxifen] | – | – | – | – | – | IC50 (in vitro [7]): 43.4 µM
8 | CN[C@H](CC(C)C)C(=O)N[C@H]1C(=O)N[C@@H](CC(N)=O)C(=O)N[C@H]2C(=O)N[C@H]3C(=O)N[C@H](C(=O)N[C@H](C(=O)O)c4cc(O)cc(O)c4-c4cc3ccc4O)[C@H](O)c3ccc(c(Cl)c3)Oc3cc2cc(c3O[C@@H]2O[C@H](CO)[C@@H](O)[C@H](O)[C@H]2O[C@H]2C[C@](C)(N)[C@H](O)[C@H](C)O2)Oc2ccc(cc2Cl)[C@H]1O [Vancomycin, reference compound] | 1 to 2 (≈ 0.69 to 1.38 µM) | 4 (≈ 2.76 µM) | – | – | – | –
